Experiments:
[1] = cited from earlier work
[2] = rate of hydrolysis by following the rate of appearance of aspirin in solution by high pressure liquid chromatography; format: physicochemical; conditions: HPLC; pH and temperature not given
Procedure: The rate of hydrolysis of 1-O-(2'-acetoxy)benzoyl-α-D-glucopyranose, i.e., the compound of the formula [drawing 4] was determined by following the rate of appearance of aspirin in a solution by high pressure liquid chromatography.

[3] = rate of generation of aspirin via hydrolysis, determined spectrophotometrically at 285 nm; format: physicochemical; conditions: for half-life: buffer, read-out: half-life of hydrolysis to aspirin (t1/2); for half-life / half-life of hydrolysis to aspirin (t1/2): average of three determinations
Procedure: Therefore, the decrease in absorbance of a solution containing both the prodrug of this invention and aspirin observed at 285 nanometers upon adjustment of the pH to a value of six is proportional to the amount of aspirin in the solution.
Accordingly, the rate of generation of aspirin via hydrolysis of the derivative of the present invention was determined spectrophotometrically at 285 nm. Solutions of 1-O-(2'-acetoxy)benzoyl-α-D-2-deoxyglucopyranose in a buffered solution containing 5 mg/ml were freshly prepared and maintained at constant temperature in a circulating waterbath. […] Buffers employed were hydrochloric acid (pH 1 to 2), citrate (pH 3), acetate (pH 4 to 6) and phosphate (pH 7-9). Ionic strength was adjusted with potassium chloride (usually to 0.1). The change in absorbance at 285 nm was followed until no change in absorbance was observed. First order plots were constructed by plotting log (At -A.infin.) agains time. The effect of pH on the rate of hydrolysis was determined using solutions ranging from pH 1.2 to pH 9.
*Each halflife is the average of three determinations.

Compound	hydrolysis product ([1]; reaction scheme (II))	rate of hydrolysis to aspirin ([1]; to the extent that hydrolysis to aspirin takes place)	half-life [2]	half-life ([3]; pH 3, pH 3, 37° C)	half-life ([3]; pH 4.6, pH 4.6, 37° C)	half-life ([3]; pH 8, pH 8, 37° C)	half-life ([3]; pH 9, pH 9, 37° C)	half-life of hydrolysis to aspirin (t1/2) ([3]; pH 6.4, 37° C)	half-life of hydrolysis to aspirin (t1/2) ([3]; pH 8, 37° C)	effect of pH on the generation of aspirin from the derivative ([3]; solutions ranging from pH 1.2 to pH 9)
CC(=O)Oc1ccccc1C(=O)O[C@H]1O[C@H](CO)[C@@H](O)[C@H](O)[C@H]1O [1-O-(2'-acetoxy)benzoyl-α-D-glucopyranose]	tends to hydrolyze so as to form the corresponding sugar derivative of salicylic acid	very slow rate	55 h							
CC(=O)Oc1ccccc1C(=O)O[C@@H]1C[C@@H](O)[C@H](O)[C@@H](CO)O1 [1-O-(2'-acetoxy)benzoyl-α-D-2-deoxyglucopyranose]				7 min	7.1 min	7 min	7 min	7.0 min	7.02 min	independent of the pH of the solutions

Source: patent publication US4242330A, “Derivative of aspirin” (The University of Kentucky Research Foundation, priority 1979, dated 1980)
